# Laboratory results from US7507540B1, “Catalytic anti-factor VIII allo-antibodies” (Institut National de la Sante et de la Recherche Medicale …, priority 1999, dated 2009).
# Non-standard residues stand in square brackets, D forms with d. Residues, ends and D or L forms follow the SMILES beside them. *: point of attachment. Sta = CC(C)C[C@H](N)[C@@H](O)CC(=O)O; Isovaleryl = CC(C)CC(=O)*
# Tested on: proteolytic activity of anti-Factor VIII IgG
# Assay: Inhibition of anti-Factor VIII IgG-catalysed hydrolysis of [125I]-Factor VIII
# Assay type: biochemical, human
# Conditions: for inhibition of proteolytic activity of anti-Factor VIII IgG: IgG of patients Bor and Wal
# Procedure: Commercial human recombinant Factor VIII was labelled with ^125I to a specific activity of 11.6 nCi/μg, by using the iodogen method. [^125I]-Factor VIII (1.5 to 150 ng) was incubated in 50 μl of 50 mM tris-HCI pH 7.7, 100 mM glycine, 0.025% Tween-20 and 0.02% NaN3 alone or with 17 to 1667 nM of immuno-purified anti-Factor VIII IgG for 5 min to 10 hours at 38° C. Human monoclonal anti-digoxin IgG M061 (mAb) and normal unfractionated human polyclonal IgG (IVIg, Sandoglobulin®), were used as negative controls. Samples were mixed 1:1 with Laemmli's buffer without mercaptoethanol, and were subjected to SDS electrophoresis without boiling,. Samples were run in parallel on 7.5% and 15% SDS-PAGE under non-reducing conditions, after loading 20 μl of each sample per lane. Migration was performed at room temperature using a mini-PROTEAN II system at 25 mA/gel, until the dye front reached the bottom of the gel. […] Following autoradiography, the Factor VIII bands of apparent molecular weight 200 and 300 kDa that are consistently hydrolysed by anti-Factor VIII IgG, were scanned so as to allow for the calculation of the rate of hydrolysis of labelled Factor VIII.
# Hydrolysis of [^125I]-Factor VIII by affinity-purified anti-Factor VIII IgG antibodies of haemophilia A patients with inhibitor in the presence of Pefabloc®. [^125I]-Factor VIII (150 ng) was incubated alone, with 50 μg/ml of immunopurified anti-Factor VIII IgG of patient Wal or in the presence of both anti-Factor VIII IgG and 4 mM of the serine protease inhibitor Pefabloc® (Boehringer) for 5 h at 38° C. Factor VIII was then analysed by 7.5% SDS-PAGE under non-reducing conditions. Following autoradiography, the Factor VIII bands of apparent molecular weight 200 and 300 kDa that are consistently hydrolysed by anti-FVIII IgG, were scanned so as to allow for the calculation of the % of hydrolysis of labelled […].
molecule,measurement,setting,value
CC(C)CC(=O)N[C@H](C(=O)N[C@H](C(=O)N[C@@H](CC(C)C)[C@@H](O)CC(=O)N[C@@H](C)C(=O)N[C@@H](CC(C)C)[C@@H](O)CC(=O)O)C(C)C)C(C)C [pepstatin] (Isovaleryl-VV[Sta]A[Sta]-OH),inhibition of proteolytic activity of anti-Factor VIII IgG,pepstatin 10 μM,did not result in inhibition of proteolytic activity
aprotinin,inhibition of proteolytic activity of anti-Factor VIII IgG,aprotinin 0.15 μM,did not result in inhibition of proteolytic activity
vWF: purified von Willebrand Factor,partial inhibition of hydrolysis of Factor VIII by anti-Factor VIII IgG,30 μg/ml of vWF versus 300 ng/ml of Factor VIII,36.9%
CC(=O)N[C@@H](CC(C)C)C(=O)N[C@@H](CC(C)C)C(=O)N[C@H](C=O)CCCNC(=N)N [leupeptin],inhibition of proteolytic activity of anti-Factor VIII IgG,leupeptin 10 μM,did not result in inhibition of proteolytic activity
"Cl.NCCc1ccc(S(=O)(=O)F)cc1 [Pefabloc, 4-(2-aminoethyl)benzenesulphonyl fluoride hydrochloride]",inhibition of proteolysis of radio-labelled Factor VIII by anti-Factor VIII allo-antibodies of patient Wal,"4 mM Pefabloc, 50 μg/ml IgG of patient Wal, 5 h at 38° C.",about 62%
O=C(O)CN(CCN(CC(=O)O)CC(=O)O)CC(=O)O [EDTA],inhibition of proteolytic activity of anti-Factor VIII IgG,EDTA 1.3 μM,did not result in inhibition of proteolytic activity
CC(C)C[C@H](NC(=O)[C@H]1O[C@@H]1C(=O)O)C(=O)NCCCCN=C(N)N [E-64],inhibition of proteolytic activity of anti-Factor VIII IgG,E-64 28 μM,did not result in inhibition of proteolytic activity
